Data as given in patent US20020198510A1, “Method for nasal application of a medicinal substance” (priority 2001, published 2002).
Entries after “also recorded” stand apart in the source; their conditions may differ.

Assay: Evans Blue Dye distribution after administration into the nose of mice
Type: in vivo
Design: key to Dye in Stomach / Dye in Lung: -: no dye is present; traces: minimal amounts are present when examined with the unaided eye but that do not clearly show on photographs; yes: dye is clearly visible; +: dye is clearly visible; ++: heavy dye presence
Details: for Dye in Larynx / Dye in Nasal Cavity / Dye in Nose Skin / Dye in Intestine / Dye in Oral Cavity / Dye in Stomach / Dye in Esophagus Lower / Dye in Esophagus Upper / Dye in Trachea Lower / Dye in Trachea Upper / Dye in Lung: 60 min to sacrifice
Procedure: To show the distribution of liquid administered through the nose, Evans Blue Dye (0.3%) was administered through a micropipette tip into the nose of mice and chinchillas at various doses, at various levels of sedation or anesthesia, and with the animals in various positions.

[1] = Dye 10 μl single dose, Supine/Supine, anesthesia 200 μl (heavy)
[2] = Dye 10 μl single dose, Upright/Not held, 0 μl (Alert)
[3] = Dye 10 μl single dose, Upright/Not held, anesthesia 200 μl (heavy)
[4] = Dye 20 μl single dose, Supine/Supine, anesthesia 200 μl (heavy)
[5] = Dye 20 μl single dose, Upright/Not held, anesthesia 200 μl (heavy)
[6] = Dye 20 μl, 2 μl/nare at 2 min interval, Supine/Supine, anesthesia 200 μl (heavy)
[7] = Dye 20 μl, 2 μl/nare at 5 min interval, Supine/Supine, anesthesia 200 μl (heavy)
[8] = Dye 20 μl, 2 μl/nare at t = 0, 2, 7, 9 and 11 min, Supine/Supine, anesthesia 200 μl (heavy)
[9] = Dye 30 μl single dose, Prone/Not held, 0 μl (Alert)
[10] = Dye 30 μl single dose, Supine/Supine, anesthesia 200 μl (heavy)
[11] = Dye 30 μl single dose, Upright/Not held, 0 μl (Alert)
[12] = Dye 30 μl single dose, Upright/Not held, anesthesia 120 μl (Mod)
[13] = Dye 30 μl single dose, Upright/Not held, anesthesia 200 μl (heavy)
[14] = Dye 30 μl, 1 drop/5 sec interval, Upright/Not held, anesthesia 200 μl (heavy)

Cc1cc(-c2ccc(/N=N/c3ccc4c(S(=O)(=O)[O-])cc(S(=O)(=O)[O-])c(N)c4c3O)c(C)c2)ccc1/N=N/c1ccc2c(S(=O)(=O)[O-])cc(S(=O)(=O)[O-])c(N)c2c1O.[Na+].[Na+].[Na+].[Na+] [Dye, Evans Blue Dye]
Dye in the stomach (5 μl and 2 μl increments (Table 8)): reduced dye in the stomach at lower incremental doses than larger incremental doses | Dye in Larynx [1]: Yes | Dye in Nasal Cavity [1]: Yes | Dye in Nose Skin [1]: Yes | Dye in Intestine [2]: Yes | Dye in Larynx [2]: Yes | Dye in Nasal Cavity [2]: Yes | Dye in Oral Cavity [2]: Yes | Dye in Stomach [2]: + and Traces | Dye in Esophagus Lower [3]: Traces; also recorded: Yes/Yes | Dye in Esophagus Upper [3]: Traces/; also recorded: Yes/Yes | Dye in Larynx [3]: Yes | Dye in Nasal Cavity [3]: Yes | Dye in Nose Skin [3]: Yes | Dye in Oral Cavity [3]: Yes | Dye in Stomach [3]: Traces and + | Dye in Trachea Lower [3]: Traces | Dye in Trachea Upper [3]: Traces/ | Dye in Esophagus Upper [4]: Traces | Dye in Larynx [4]: Yes | Dye in Nasal Cavity [4]: Yes | Dye in Nose Skin [4]: Yes | Dye in Oral Cavity [4]: Yes | Dye in Trachea Lower [4]: Traces | Dye in Trachea Upper [4]: Traces/ | Dye in Esophagus Lower [5]: Yes/Yes | Dye in Esophagus Upper [5]: Yes/Yes | Dye in Larynx [5]: Yes | Dye in Nasal Cavity [5]: Yes | Dye in Nose Skin [5]: Yes | Dye in Oral Cavity [5]: Yes | Dye in Stomach [5]: + | Dye in Esophagus Lower [6]: Yes/Yes | Dye in Esophagus Upper [6]: Yes/Yes | Dye in Larynx [6]: Yes | Dye in Nasal Cavity [6]: Yes | Dye in Nose Skin [6]: Yes | Dye in Oral Cavity [6]: Yes | Dye in Stomach [6]: + | Dye in Esophagus Upper [7]: Yes | Dye in Larynx [7]: Yes | Dye in Nasal Cavity [7]: Yes | Dye in Nose Skin [7]: Yes | Dye in Oral Cavity [7]: Yes | Dye in Larynx [8]: Yes | Dye in Nasal Cavity [8]: Yes | Dye in Nose Skin [8]: Yes | Dye in Intestine [9]: Yes | Dye in Larynx [9]: Traces | Dye in Nasal Cavity [9]: Yes | Dye in Oral Cavity [9]: Traces | Dye in Stomach [9]: ++ and + | Dye in Esophagus Lower [10]: Yes/Yes | Dye in Esophagus Upper [10]: Yes/Yes | Dye in Larynx [10]: Yes | Dye in Nasal Cavity [10]: Yes | Dye in Nose Skin [10]: Yes | Dye in Oral Cavity [10]: Yes | Dye in Trachea Lower [10]: Yes/Yes | Dye in Trachea Upper [10]: Yes/Yes | Dye in Intestine [11]: Yes | Dye in Larynx [11]: Yes | Dye in Nasal Cavity [11]: Yes | Dye in Nose Skin [11]: Yes | Dye in Oral Cavity [11]: Yes | Dye in Stomach [11]: ++ and + | Dye in Esophagus Lower [12]: Yes/Yes | Dye in Esophagus Upper [12]: Yes/Yes | Dye in Larynx [12]: Yes | Dye in Lung [12]: Traces | Dye in Nasal Cavity [12]: Yes | Dye in Nose Skin [12]: Yes | Dye in Oral Cavity [12]: Yes | Dye in Stomach [12]: ++ and + | Dye in Trachea Lower [12]: Yes/Yes | Dye in Trachea Upper [12]: Yes/Yes | Dye in Esophagus Lower [13]: Yes/Yes | Dye in Esophagus Upper [13]: Yes/Yes | Dye in Larynx [13]: Yes | Dye in Lung [13]: + | Dye in Nasal Cavity [13]: Yes | Dye in Nose Skin [13]: Yes | Dye in Oral Cavity [13]: Yes | Dye in Trachea Lower [13]: Yes/Yes | Dye in Trachea Upper [13]: Yes/Yes | Dye in Esophagus Lower [14]: Yes/Yes | Dye in Esophagus Upper [14]: Yes/Yes | Dye in Larynx [14]: Yes | Dye in Nasal Cavity [14]: Yes | Dye in Nose Skin [14]: Yes
